Reference: US20240269301A1, “METHOD FOR INITIATING POLYMERIZATION OF AMINO ACID N-CARBOXYANHYDRIDES IN AQUEOUS PHASE” (PEKING UNIVERSITY, priority 2021, published 2024)
Where a name gives a salt, the structure may show the parent alone.

Test: Solubility of doxorubicin in PBS (absorbance 495 nm)
Format: physicochemical
Conditions: FIG. 38
Protocol: Determination of doxorubicin content: 600, 300, 150, 75, 37.5, 18.75, 9.375, and 0 μg/mL DOX was formulated as a standard curve. 5 mg of doxorubicin hydrochloride was weighed and added to 1 mL of PBS. 10 mg of DOX-PLP was weighed and added to 100 μL of PBS. After dissolving by vortexing, the mixture was centrifuged at 21,000 for 10 min, and the supernatant was diluted to an appropriate multiple. The absorbance value was measured at 495 nm, and the DOX content was calculated based on the absorbance value of the standard curve.

SMILES: COc1cccc2c1C(=O)c1c(O)c3c(c(O)c1C2=O)C[C@@](O)(C(=O)CO)C[C@@H]3O[C@H]1C[C@H](N)[C@H](O)[C@H](C)O1 [doxorubicin hydrochloride]
- solubility limit: 573±22 μg/mL DOX
